Target: T1, CYP126A1 (Mycobacterium tuberculosis, UniProt P9WPN9)
T1 construct: gene cyp126
Test: UV-visible absorbance titration (heme Soret shift)
Assay type: binding

T1 sequence (P9WPN9 whole entry): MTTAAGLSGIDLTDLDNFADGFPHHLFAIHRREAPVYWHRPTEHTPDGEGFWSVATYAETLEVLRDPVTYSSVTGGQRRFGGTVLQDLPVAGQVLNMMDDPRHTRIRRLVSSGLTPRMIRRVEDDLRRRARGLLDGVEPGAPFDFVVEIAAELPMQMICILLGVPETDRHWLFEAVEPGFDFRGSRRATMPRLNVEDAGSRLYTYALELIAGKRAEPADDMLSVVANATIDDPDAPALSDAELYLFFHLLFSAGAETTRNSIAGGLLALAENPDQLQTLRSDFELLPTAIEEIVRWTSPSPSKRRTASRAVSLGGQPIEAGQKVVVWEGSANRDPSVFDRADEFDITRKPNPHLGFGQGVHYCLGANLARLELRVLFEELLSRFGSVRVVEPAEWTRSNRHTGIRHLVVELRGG

Compound | Kd [µM]
c1c[nH]cn1 [Imidazole] | 2590 ± 60
Clc1ccccc1C(c1ccccc1)(c1ccccc1)n1ccnc1 [Clotrimazole] | 3.9 ± 0.4
O=C(O)C1CSC(c2cc3ccccc3nc2Cl)N1 (centres unmarked) [compound 9, Compound 9] | 16.4 ± 0.7
Cn1c(-c2ccc(-c3nc4ccccc4[nH]3)cc2)nc2cc(N)ccc21 [compound 8, Compound 8] | 11 ± 0.6
Clc1ccc(COC(Cn2ccnc2)c2ccc(Cl)cc2Cl)c(Cl)c1 (centres unmarked) [Miconazole] | 1.3 ± 0.2
CC(=O)N1CCN(c2ccc(OC[C@H]3CO[C@](Cn4ccnc4)(c4ccc(Cl)cc4Cl)O3)cc2)CC1 (racemic) [Ketoconazole] | 0.34 ± 0.07
O=C(NCCCn1ccnc1)NC12CC3CC(CC(C3)C1)C2 [compound 7, Compound 7] | 4.13 ± 0.61
Clc1ccc(COC(Cn2ccnc2)c2ccc(Cl)cc2Cl)cc1 (centres unmarked) [Econazole] | 4 ± 0.6

From paper PMC5270475, “Structural Characterization and Ligand/Inhibitor Identification Provide Functional Insights into the Mycobacterium tuberculosis Cytochrome P450 CYP126A1” (The Journal of Biological Chemistry, 2016)
